# Reference: ChEMBL document CHEMBL1147026, “Synthesis of pseudopeptides based L-tryptophan as a potential antimicrobial agent” (Bioorg Med Chem Lett, 2007)
# Active and inactive are the calls of the source. No cut-off for these calls is given here.
# Key:
# Staphylococcus aureus [1] = test: Antibacterial activity against methicillin-susceptible Staphylococcus aureus ATCC 25923 after 24 hrs by two fold dilution method; format: functional; settings: ATCC 25923, 24 h
# Staphylococcus aureus [2] = test: Antibacterial activity against methicillin-resistant Staphylococcus aureus CMAH 0430 upto 128 ug/mL after 24 hrs by two fold dilution method; format: functional, organism-based
# Staphylococcus aureus [3] = test: Antibacterial activity against methicillin-resistant Staphylococcus aureus CMAH 0504 upto 128 ug/mL by two fold dilution method; format: functional, organism-based
# Staphylococcus aureus [4] = test: Antibacterial activity against methicillin-resistant Staphylococcus aureus CMAH 0515 upto 128 ug/mL after 24 hrs by two fold dilution method; format: functional, organism-based
# Bacillus subtilis = test: Antimicrobial activity against Bacillus subtilis after 24 hrs by two fold dilution method; format: functional
# Escherichia coli [5] = test: Antimicrobial activity against Escherichia coli ATCC 25922 upto 128 ug/mL after 24 hrs by two fold dilution method; format: functional, organism-based
# Pseudomonas aeruginosa [6] = test: Antimicrobial activity against Pseudomonas aeruginosa ATCC 27853 upto 128 ug/mL after 24 hrs by two fold dilution method; format: functional, organism-based
# Proteus vulgaris [7] = test: Antimicrobial activity against Proteus vulgaris CMCC(B) 49001 upto 128 ug/mL after 24 hrs by two fold dilution method; format: functional, organism-based
# Klebsiella aerogenes [8] = test: Antibacterial activity against Enterobacter aerogenes CMCC(B) 45103 upto 128 ug/mL after 24 hrs by two fold dilution method; format: functional, organism-based
# Micrococcus luteus [9] = test: Antimicrobial activity against Micrococcus luteus CMCC(B) 28001 upto 128 ug/mL after 24 hrs by two fold dilution method; format: functional, organism-based
# Candida albicans [10] = test: Antifungal activity against Candida albicans ATCC 10231 after 48 to 72 hrs by broth microdilution method; format: functional
# Candida albicans [11] = test: Antifungal activity against Candida albicans CMAH 0501 after 48 to 72 hrs by broth microdilution method; format: functional
# Candida albicans [12] = test: Antifungal activity against Candida albicans CMAH 0503 after 48 to 72 hrs by broth microdilution method; format: functional
# Candida albicans [13] = test: Antifungal activity against Candida albicans CMAH 0507 after 48 to 72 hrs by broth microdilution method; format: functional
# Candida albicans [14] = test: Antifungal activity against Candida albicans CMAH 0511 after 48 to 72 hrs by broth microdilution method; format: functional
# Candida albicans [15] = test: Antifungal activity against fluconazole-resistant Candida albicans CMAH 0520 after 48 to 72 hrs by broth microdilution method; format: functional
# Candida albicans [16] = test: Antifungal activity against Candida albicans CMAH 0527 after 48 to 72 hrs by broth microdilution method; format: functional
# Candida albicans [17] = test: Antifungal activity against Candida albicans CMAH 0572 upto 128 ug/mL after 48 to 72 hrs by broth microdilution method; format: functional, organism-based
# Candida albicans [18] = test: Antifungal activity against Candida albicans CMAM 0577 upto 128 ug/mL after 48 to 72 hrs by broth microdilution method; format: functional, organism-based
# Candida albicans [19] = test: Antifungal activity against Candida albicans CMAM 0592 upto 128 ug/mL after 48 to 72 hrs by broth microdilution method; format: functional, organism-based
# Candida albicans [20] = test: Antifungal activity against Candida albicans CMAM 0594 upto 128 ug/mL after 48 to 72 hrs by broth microdilution method; format: functional, organism-based
# Candida albicans [21] = test: Antifungal activity against fluconazole-resistant Candida albicans CMAM 0597 upto 128 ug/mL after 48 to 72 hrs by broth microdilution method; format: functional, organism-based
# Cryptococcus neoformans [22] = test: Antifungal activity against Cryptococcus neoformans ATCC 90112 upto 128 ug/mL after 48 to 72 hrs by broth microdilution method; format: functional, organism-based
# Saccharomyces cerevisiae [23] = test: Antimicrobial activity against Saccharomyces cerevisiae upto 128 ug/mL after 48 to 72 hrs by broth microdilution method; format: functional, organism-based
# Rhodotorula glutinis = test: Antimicrobial activity against Rhodotorula glutinis SYM 2209 after 48 to 72 hrs by broth microdilution method; format: functional
# Aspergillus sp. = test: Antifungal activity against Aspergillus sp. after 48 to 72 hrs by broth microdilution method; format: functional
# Candida albicans [24] = test: Antifungal activity against Candida albicans CMAH 0572 after 48 to 72 hrs by broth microdilution method; format: functional
# Candida albicans [25] = test: Antifungal activity against Candida albicans CMAM 0577 after 48 to 72 hrs by broth microdilution method; format: functional
# Candida albicans [26] = test: Antifungal activity against Candida albicans CMAM 0592 after 48 to 72 hrs by broth microdilution method; format: functional
# Candida albicans [27] = test: Antifungal activity against Candida albicans CMAM 0594 after 48 to 72 hrs by broth microdilution method; format: functional
# Candida albicans [28] = test: Antifungal activity against fluconazole-resistant Candida albicans CMAM 0597 after 48 to 72 hrs by broth microdilution method; format: functional
# Cryptococcus neoformans [29] = test: Antifungal activity against Cryptococcus neoformans ATCC 90112 after 48 to 72 hrs by broth microdilution method; format: functional
# Saccharomyces cerevisiae [30] = test: Antimicrobial activity against Saccharomyces cerevisiae after 48 to 72 hrs by broth microdilution method; format: functional
# Staphylococcus aureus [31] = test: Antibacterial activity against methicillin-resistant Staphylococcus aureus CMAH 0430 after 24 hrs by two fold dilution method; format: functional
# Staphylococcus aureus [32] = test: Antibacterial activity against methicillin-resistant Staphylococcus aureus CMAH 0504 after 24 hrs by two fold dilution method; format: functional
# Staphylococcus aureus [33] = test: Antibacterial activity against methicillin-resistant Staphylococcus aureus CMAH 0515 after 24 hrs by two fold dilution method; format: functional
# Escherichia coli [34] = test: Antimicrobial activity against Escherichia coli ATCC 25922 after 24 hrs by two fold dilution method; format: functional; settings: ATCC 25922, 24 h
# Pseudomonas aeruginosa [35] = test: Antimicrobial activity against Pseudomonas aeruginosa ATCC 27853 after 24 hrs by two fold dilution method; format: functional; settings: ATCC 27853, 24 h
# Proteus vulgaris [36] = test: Antimicrobial activity against Proteus vulgaris CMCC(B) 49001 after 24 hrs by two fold dilution method; format: functional
# Klebsiella aerogenes [37] = test: Antibacterial activity against Enterobacter aerogenes CMCC(B) 45103 after 24 hrs by two fold dilution method; format: functional
# Micrococcus luteus [38] = test: Antimicrobial activity against Micrococcus luteus CMCC(B) 28001 after 24 hrs by two fold dilution method; format: functional
compound,measurement,setting,value
COC(=O)[C@H](Cc1c[nH]c2ccccc12)NC(=O)c1cccc(C(=O)N[C@@H](Cc2c[nH]c3ccccc23)C(=O)OC)n1,MIC,Staphylococcus aureus [1],64 mg/L
same,Activity,Staphylococcus aureus [2],inactive
same,Activity,Staphylococcus aureus [3],inactive
same,Activity,Staphylococcus aureus [4],inactive
same,MBC,Bacillus subtilis,> 128 mg/L
same,MIC,Bacillus subtilis,32 mg/L
same,Activity,Escherichia coli [5],inactive
same,Activity,Pseudomonas aeruginosa [6],inactive
same,Activity,Proteus vulgaris [7],inactive
same,Activity,Klebsiella aerogenes [8],inactive
same,Activity,Micrococcus luteus [9],inactive
same,MFC,Candida albicans [10],128 mg/L
same,MIC,Candida albicans [10],32 mg/L
same,MFC,Candida albicans [11],128 mg/L
same,MIC,Candida albicans [11],32 mg/L
same,MFC,Candida albicans [12],128 mg/L
same,MIC,Candida albicans [12],32 mg/L
same,MIC,Candida albicans [13],64 mg/L
same,MBC,Candida albicans [14],128 mg/L
same,MIC,Candida albicans [14],32 mg/L
same,MIC,Candida albicans [15],64 mg/L
same,MBC,Candida albicans [16],128 mg/L
same,MIC,Candida albicans [16],32 mg/L
same,Activity,Candida albicans [17],inactive
same,Activity,Candida albicans [18],inactive
same,Activity,Candida albicans [19],inactive
same,Activity,Candida albicans [20],inactive
same,Activity,Candida albicans [21],inactive
same,Activity,Cryptococcus neoformans [22],inactive
same,Activity,Saccharomyces cerevisiae [23],inactive
same,MFC,Rhodotorula glutinis,128 mg/L
same,MIC,Rhodotorula glutinis,32 mg/L
same,MIC50,Aspergillus sp.; Aspergillus sp.,> 128 mg/L
same,MIC90,Aspergillus sp.; Aspergillus sp.,> 128 mg/L
C[C@@H]1[C@H](O)[C@@H](C)/C=C/C=C/C=C/C=C/C=C/C=C/C=C/[C@H](O[C@@H]2O[C@H](C)[C@@H](O)[C@H](N)[C@@H]2O)C[C@@H]2O[C@](O)(C[C@@H](O)C[C@@H](O)[C@H](O)CC[C@@H](O)C[C@@H](O)CC(=O)O[C@H]1C)C[C@H](O)[C@H]2C(=O)O [AMPHOTERICIN B],MFC,Candida albicans [10],0.25 mg/L
same,MIC,Candida albicans [10],0.13 mg/L
same,MFC,Candida albicans [11],1 mg/L
same,MIC,Candida albicans [11],0.25 mg/L
same,MFC,Candida albicans [12],0.5 mg/L
same,MIC,Candida albicans [12],0.25 mg/L
same,MFC,Candida albicans [13],0.5 mg/L
same,MIC,Candida albicans [13],0.5 mg/L
same,MFC,Candida albicans [14],2 mg/L
same,MIC,Candida albicans [14],1 mg/L
same,MFC,Candida albicans [15],0.5 mg/L
same,MIC,Candida albicans [15],0.25 mg/L
same,MFC,Candida albicans [16],1 mg/L
same,MIC,Candida albicans [16],0.5 mg/L
same,MFC,Candida albicans [24],4 mg/L
same,MIC,Candida albicans [24],1 mg/L
same,MFC,Candida albicans [25],4 mg/L
same,MIC,Candida albicans [25],1 mg/L
same,MFC,Candida albicans [26],2 mg/L
same,MIC,Candida albicans [26],2 mg/L
same,MFC,Candida albicans [27],4 mg/L
same,MIC,Candida albicans [27],4 mg/L
same,MFC,Candida albicans [28],4 mg/L
same,MIC,Candida albicans [28],2 mg/L
same,MFC,Cryptococcus neoformans [29],1 mg/L
same,MIC,Cryptococcus neoformans [29],0.25 mg/L
same,MFC,Saccharomyces cerevisiae [30],0.5 mg/L
same,MIC,Saccharomyces cerevisiae [30],0.25 mg/L
same,MFC,Rhodotorula glutinis,> 64 mg/L
same,MIC,Rhodotorula glutinis,16 mg/L
same,MFC50,Aspergillus sp.,2 mg/L
same,MFC90,Aspergillus sp.,8 mg/L
same,MFC,Aspergillus sp.; Aspergillus sp.,2.96 mg/L
same,MIC,Aspergillus sp.; Aspergillus sp.,1.61 mg/L
same,MIC50,Aspergillus sp.; Aspergillus sp.,1 mg/L
same,MIC90,Aspergillus sp.; Aspergillus sp.,4 mg/L
CC1(C)S[C@@H]2[C@H](NC(=O)[C@H](N)c3ccccc3)C(=O)N2[C@H]1C(=O)O [AMPICILLIN],MBC,Staphylococcus aureus [1],0.5 mg/L
same,MIC,Staphylococcus aureus [1],0.25 mg/L
same,MIC,Staphylococcus aureus [31],> 64 mg/L
same,MIC,Staphylococcus aureus [32],> 64 mg/L
same,MIC,Staphylococcus aureus [33],> 64 mg/L
same,MBC,Bacillus subtilis,0.25 mg/L
same,MIC,Bacillus subtilis,0.3 mg/L
same,MBC,Escherichia coli [34],64 mg/L
same,MIC,Escherichia coli [34],32 mg/L
same,MIC,Pseudomonas aeruginosa [35],> 64 mg/L
same,MBC,Proteus vulgaris [36],0.5 mg/L
same,MIC,Proteus vulgaris [36],0.3 mg/L
same,MIC,Klebsiella aerogenes [37],> 64 mg/L
same,MBC,Micrococcus luteus [38],0.5 mg/L
same,MIC,Micrococcus luteus [38],0.3 mg/L
same,MFC,Candida albicans [11],128 mg/L
same,MIC,Candida albicans [11],32 mg/L
